Experiments:
Assay in all cases: relative viability (nuclei count vs DMSO), 5 days (fraction); higher = more cells survive
[1] = compound: Cc1ccc(F)c(NC(=O)Nc2ccc(-c3cccc4[nH]nc(N)c34)cc2)c1 [Linifanib] + COc1cccc2cc(-c3nc([C@H]4CC[C@H](C(=O)O)CC4)n4ncnc(N)c34)[nH]c12 [OSI-027] (partner 0.5 µM)
In short: (§1)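 Lung cancer cell lines in 1536-well plates got either a single drug or a fixed anchor-drug dose together with five library-drug doses (not always all listed) in √10 steps, by pin tool, on the day after seeding. Nuclei were counted after 5 days, and relative viability is the treated-to-vehicle ratio of nuclei counts. Values are medians of duplicate plates.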

[2] = compound: Cc1ccc(F)c(NC(=O)Nc2ccc(-c3cccc4[nH]nc(N)c34)cc2)c1 [Linifanib] + COc1cc2c(Oc3ccc(NC(=O)C4(C(=O)Nc5ccc(F)cc5)CC4)cc3F)ccnc2cc1OCCCN1CCOCC1 [Foretinib] (partner 0.25 µM)
In short: as §1

[3] = compound: Cc1ccc(F)c(NC(=O)Nc2ccc(-c3cccc4[nH]nc(N)c34)cc2)c1 [Linifanib] + Cc1nc(Nc2ncc(C(=O)Nc3c(C)cccc3Cl)s2)cc(N2CCN(CCO)CC2)n1 [Dasatinib] (partner 0.075 µM)
In short: as §1

[4] = compound: Cc1ccc(F)c(NC(=O)Nc2ccc(-c3cccc4[nH]nc(N)c34)cc2)c1 [Linifanib] + Cc1cc(Nc2cc(N3CCN(C)CC3)nc(Sc3ccc(NC(=O)C4CC4)cc3)n2)n[nH]1 [Tozasertib] (partner 0.1 µM)
In short: as §1

[5] = compound: Cc1ccc(F)c(NC(=O)Nc2ccc(-c3cccc4[nH]nc(N)c34)cc2)c1 [Linifanib] + CCNC(=O)c1noc(-c2cc(C(C)C)c(O)cc2O)c1-c1ccc(CN2CCOCC2)cc1 [Luminespib] (partner 0.01 µM)
In short: as §1

[6] = compound: Cc1ccc(F)c(NC(=O)Nc2ccc(-c3cccc4[nH]nc(N)c34)cc2)c1 [Linifanib] + N=C(N)NC(=N)NCCc1ccccc1 [Phenformin] (partner 250 µM)
In short: as §1

[7] = compound: Cc1ccc(F)c(NC(=O)Nc2ccc(-c3cccc4[nH]nc(N)c34)cc2)c1 [Linifanib]
In short: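 Vehicle-anchored 1536-well plates of lung cancer cell lines, held overnight at 37 °C, were pinned with five library-drug doses (not always all listed) spaced by √10. No medium change followed over the next 5 days, after which the cells were fixed, permeabilised and Hoechst-stained together and imaged at 4×. Nuclei were counted with MetaXpress, and viability is treated-well nuclei over vehicle-well nuclei, taken as a median across plates. Plates passed with control CV below 25% and at least one doubling.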

[8] = compound: Cc1ccc(F)c(NC(=O)Nc2ccc(-c3cccc4[nH]nc(N)c34)cc2)c1 [Linifanib] + CS(=O)(=O)N1CCN(Cc2cc3nc(-c4cccc5[nH]ncc45)nc(N4CCOCC4)c3s2)CC1 [Pictilisib] (partner 1 µM)
In short: as §1

[9] = compound: Cc1ccc(F)c(NC(=O)Nc2ccc(-c3cccc4[nH]nc(N)c34)cc2)c1 [Linifanib] + CC1(C)CCC(c2ccc(Cl)cc2)=C(CN2CCN(c3ccc(C(=O)NS(=O)(=O)c4ccc(N[C@H](CCN5CCOCC5)CSc5ccccc5)c(S(=O)(=O)C(F)(F)F)c4)cc3)CC2)C1 [Navitoclax] (partner 0.5 µM)
In short: as §1

[10] = compound: Cc1ccc(F)c(NC(=O)Nc2ccc(-c3cccc4[nH]nc(N)c34)cc2)c1 [Linifanib] + CC(C)C[C@H](NC(=O)[C@H](Cc1ccccc1)NC(=O)c1cnccn1)B(O)O [Bortezomib] (partner 0.002 µM)
In short: as §1

[11] = compound: Cc1ccc(F)c(NC(=O)Nc2ccc(-c3cccc4[nH]nc(N)c34)cc2)c1 [Linifanib] + Cc1nc(NC(=O)N2CCC[C@H]2C(N)=O)sc1-c1ccnc(C(C)(C)C(F)(F)F)c1 [Alpelisib] (partner 2 µM)
In short: as §1

[12] = compound: Cc1ccc(F)c(NC(=O)Nc2ccc(-c3cccc4[nH]nc(N)c34)cc2)c1 [Linifanib] + CS(=O)(=O)CCNCc1ccc(-c2ccc3ncnc(Nc4ccc(OCc5cccc(F)c5)c(Cl)c4)c3c2)o1 [Lapatinib] (partner 2 µM)
In short: as §1

[13] = compound: Cc1ccc(F)c(NC(=O)Nc2ccc(-c3cccc4[nH]nc(N)c34)cc2)c1 [Linifanib] + O=C(c1cc(Cc2n[nH]c(=O)c3ccccc23)ccc1F)N1CCN(C(=O)C2CC2)CC1 [Olaparib] (partner 8 µM)
In short: as §1

[14] = compound: Cc1ccc(F)c(NC(=O)Nc2ccc(-c3cccc4[nH]nc(N)c34)cc2)c1 [Linifanib] + C[C@]1(O)C[C@@H](c2nc(-c3ccc4ccc(-c5ccccc5)nc4c3)c3c(N)nccn32)C1 [Linsitinib] (partner 1 µM)
In short: as §1

[15] = compound: Cc1ccc(F)c(NC(=O)Nc2ccc(-c3cccc4[nH]nc(N)c34)cc2)c1 [Linifanib] + C[C@@H](Oc1cc(-c2cnn(C3CCNCC3)c2)cnc1N)c1c(Cl)ccc(F)c1Cl [Crizotinib] (partner 1 µM)
In short: as §1

[16] = compound: Cc1ccc(F)c(NC(=O)Nc2ccc(-c3cccc4[nH]nc(N)c34)cc2)c1 [Linifanib] + Nc1nc2[nH]cc(CCc3ccc(C(=O)N[C@@H](CCC(=O)O)C(=O)O)cc3)c2c(=O)[nH]1 [Pemetrexed] (partner 0.2 µM)
In short: as §1

[17] = compound: Cc1ccc(F)c(NC(=O)Nc2ccc(-c3cccc4[nH]nc(N)c34)cc2)c1 [Linifanib] + O=C(CCCCCCC(=O)Nc1ccccc1)NO [Vorinostat] (partner 1 µM)
In short: as §1

Cell Line | relative viability ([2]; first compound 0.03162 µM) | relative viability ([2]; first compound 0.1 µM) | relative viability ([2]; first compound 0.3162 µM) | relative viability ([7]; 0.03162 µM) | relative viability ([7]; 0.1 µM) | relative viability ([7]; 0.3162 µM) | relative viability ([8]; first compound 0.03162 µM) | relative viability ([8]; first compound 0.1 µM) | relative viability ([8]; first compound 0.3162 µM) | relative viability ([10]; first compound 0.03162 µM) | relative viability ([10]; first compound 0.1 µM) | relative viability ([10]; first compound 0.3162 µM) | relative viability ([11]; first compound 0.03162 µM) | relative viability ([11]; first compound 0.1 µM) | relative viability ([11]; first compound 0.3162 µM) | relative viability ([12]; first compound 0.03162 µM) | relative viability ([12]; first compound 0.3162 µM) | relative viability ([14]; first compound 0.03162 µM) | relative viability ([14]; first compound 0.1 µM) | relative viability ([14]; first compound 0.3162 µM) | also measured
NCI-H1623 | 0.848 | 0.929 | 0.877 | 0.918 | 0.891 | 1.04 | – | – | – | – | – | – | – | – | – | – | – | – | – | – | relative viability ([1]; first compound 0.03162 µM): 0.437; relative viability ([1]; first compound 0.1 µM): 0.43; relative viability ([1]; first compound 0.3162 µM): 0.421; relative viability ([3]; first compound 0.03162 µM): 0.463; relative viability ([3]; first compound 0.1 µM): 0.608; relative viability ([3]; first compound 0.3162 µM): 0.46; relative viability ([4]; first compound 0.03162 µM): 0.427; relative viability ([4]; first compound 0.1 µM): 0.434; relative viability ([4]; first compound 0.3162 µM): 0.417; relative viability ([5]; first compound 0.03162 µM): 0.49; relative viability ([5]; first compound 0.1 µM): 0.493; relative viability ([5]; first compound 0.3162 µM): 0.471; relative viability ([6]; first compound 0.03162 µM): 0.524; relative viability ([6]; first compound 0.1 µM): 0.601; relative viability ([6]; first compound 0.3162 µM): 0.601
Calu-6 | 0.812 | 0.95 | 0.881 | 1.05 | 1.05 | 0.995 | 0.93 | 0.995 | 0.892 | 0.978 | 1.15 | 1.07 | 1.08 | 1.05 | 1.01 | 1.12 | 1 | 1.01 | 0.919 | 0.969 | relative viability ([9]; first compound 0.03162 µM): 0.888; relative viability ([9]; first compound 0.1 µM): 0.863; relative viability ([9]; first compound 0.3162 µM): 0.873; relative viability ([12]; first compound 0.1 µM): 1.19; relative viability ([13]; first compound 0.03162 µM): 0.539; relative viability ([13]; first compound 0.1 µM): 0.602; relative viability ([13]; first compound 0.3162 µM): 0.565; relative viability ([15]; first compound 0.03162 µM): 0.815; relative viability ([15]; first compound 0.1 µM): 0.768; relative viability ([15]; first compound 0.3162 µM): 0.826
NCI-H1563 | 0.954 | 0.968 | 0.887 | 0.904 | 1.04 | 1.02 | 0.669 | 0.665 | 0.629 | 0.952 | 0.87 | 0.812 | 0.901 | 0.956 | 0.956 | 0.963 | 0.913 | 1.14 | 1.33 | 1.08 | relative viability ([1]; first compound 0.03162 µM): 0.718; relative viability ([1]; first compound 0.1 µM): 0.814; relative viability ([1]; first compound 0.3162 µM): 0.716; relative viability ([3]; first compound 0.03162 µM): 0.452; relative viability ([3]; first compound 0.1 µM): 0.484; relative viability ([3]; first compound 0.3162 µM): 0.496; relative viability ([5]; first compound 0.03162 µM): 0.558; relative viability ([5]; first compound 0.1 µM): 0.504; relative viability ([5]; first compound 0.3162 µM): 0.512; relative viability ([12]; first compound 0.1 µM): 1.05; relative viability ([16]; first compound 0.03162 µM): 0.803; relative viability ([16]; first compound 0.1 µM): 0.911; relative viability ([16]; first compound 0.3162 µM): 0.692; relative viability ([6]; first compound 0.03162 µM): 0.669; relative viability ([6]; first compound 0.1 µM): 0.691; relative viability ([6]; first compound 0.3162 µM): 0.605; relative viability ([15]; first compound 0.03162 µM): 0.862; relative viability ([15]; first compound 0.1 µM): 0.852; relative viability ([15]; first compound 0.3162 µM): 0.879
IA-LM | 1.2 | 1.18 | 1.15 | 0.983 | 0.84 | 0.914 | 0.313 | 0.319 | 0.338 | 0.752 | 0.974 | 0.846 | 0.588 | 0.872 | 0.643 | 0.718 | 0.713 | 0.611 | 0.46 | 0.55 | relative viability ([9]; first compound 0.03162 µM): 0.855; relative viability ([9]; first compound 0.1 µM): 0.947; relative viability ([9]; first compound 0.3162 µM): 0.656; relative viability ([17]; first compound 0.03162 µM): 0.841; relative viability ([17]; first compound 0.1 µM): 0.906; relative viability ([17]; first compound 0.3162 µM): 1.33; relative viability ([13]; first compound 0.03162 µM): 0.901; relative viability ([13]; first compound 0.1 µM): 0.81; relative viability ([13]; first compound 0.3162 µM): 0.8; relative viability ([15]; first compound 0.03162 µM): 0.806; relative viability ([15]; first compound 0.3162 µM): 0.768
NCI-H1299 | 1.1 | 1.11 | 1.04 | 1.02 | 1.02 | 1.03 | 0.575 | 0.885 | 0.829 | 1.03 | 1.01 | 1.02 | 1.11 | 1.02 | 1.06 | 0.951 | 0.994 | 0.975 | 0.996 | 0.998 | relative viability ([9]; first compound 0.03162 µM): 1.06; relative viability ([9]; first compound 0.1 µM): 1.08; relative viability ([9]; first compound 0.3162 µM): 1; relative viability ([12]; first compound 0.1 µM): 0.95; relative viability ([13]; first compound 0.03162 µM): 0.978; relative viability ([13]; first compound 0.1 µM): 0.958; relative viability ([13]; first compound 0.3162 µM): 0.959; relative viability ([15]; first compound 0.03162 µM): 0.899; relative viability ([15]; first compound 0.1 µM): 0.956; relative viability ([15]; first compound 0.3162 µM): 0.97

Reference: the supplement of paper PMC10307832
